Measurements reported in US20090291938A1 (TAKEDA PHARMACEUTICAL COMPANY LIMITED, priority 2007, published 2009).

Tested on: HT29 human colorectal adenocarcinoma cell line
Test: cell proliferation assay (Cell Titer-Glo luminescent cell viability assay)
Format: cell-based
Settings: HT-29, cell proliferative assay, HT29 cells, 72 hr treatment, values given as ranges, read-out: pIC50 (converted)
Summary of the method: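 Cells grown in DMEM with 10% FBS and exposed to compounds for 72 h. Viability read by CellTiter-Glo luminescence, expressed as percentage of DMSO-treated cells.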

SMILES	IC50 [nM]
COc1cc(C(=O)NN2CCN(C)CC2)ccc1Nc1ncc2c(n1)N(C1CCCC1)CC1(CCC1)C(=O)N2C [Compound 180, 4-(9′-cyclopentyl-5′-methyl-6′-oxo-5′,6′,8′,9′-tetrahydrospiro[cyclobutane-1,7′-pyrimido[4,5-b][1,4]diazepine]-2′-ylamino)-3-methoxy-N-(4-methylpiperazin-1-yl)benzamide]	< 1
COc1cc(C(=O)N[C@@H]2CCCNC2)ccc1Nc1ncc2c(n1)N(C1CCCC1)CC1(CCC1)C(=O)N2C [Compound 181, (R)-4-(9′-cyclopentyl-5′-methyl-6′-oxo-5′,6′,8′,9′-tetrahydrospiro[cyclobutane-1,7′-pyrimido[4,5-b][1,4]diazepine]-2′-ylamino)-3-methoxy-N-(piperidin-3-yl)benzamide]	3.16 to 10
COc1cc(C(=O)N[C@H]2CCCNC2)ccc1Nc1ncc2c(n1)N(C1CCCC1)CC1(CCC1)C(=O)N2C [Compound 182, (S)-4-(9′-cyclopentyl-5′-methyl-6′-oxo-5′,6′,8′,9′-tetrahydrospiro[cyclobutane-1,7′-pyrimido[4,5-b][1,4]diazepine]-2′-ylamino)-3-methoxy-N-(piperidin-3-yl)benzamide]	1 to 2.51
C=CCC1CN(C2CCCCC2)c2nc(Nc3ccc(C(=O)N[C@@H]4CCCNC4)cc3OC)ncc2N(C)C1=O (stereo partly drawn) [Compound 191, 4-(7-allyl-9-cyclohexyl-5-methyl-6-oxo-6,7,8,9-tetrahydro-5H-pyrimido[4,5-b][1,4]diazepin-2-ylamino)-3-methoxy-N-((R)-piperidin-3-yl)benzamide]	3.16 to 10
C=CCC1CN(C2CCCCC2)c2nc(Nc3ccc(C(=O)N[C@H]4CCCNC4)cc3OC)ncc2N(C)C1=O (stereo partly drawn) [Compound 192, 4-(7-allyl-9-cyclohexyl-5-methyl-6-oxo-6,7,8,9-tetrahydro-5H-pyrimido[4,5-b][1,4]diazepin-2-ylamino)-3-methoxy-N-((S)-piperidin-3-yl)benzamide]	> 10
C=CCC1CN(C2CCCCC2)c2nc(Nc3ccc(C(=O)N[C@H]4CCNC4)cc3OC)ncc2N(C)C1=O (stereo partly drawn) [Compound 194, 4-(7-allyl-9-cyclohexyl-5-methyl-6-oxo-6,7,8,9-tetrahydro-5H-pyrimido[4,5-b][1,4]diazepin-2-ylamino)-3-methoxy-N-((S)-pyrrolidin-3-yl)benzamide]	< 1
C=CC[C@H]1CN(C2CCCC2)c2nc(Nc3ccc(C(=O)NC4CN(C)C4)cc3OC)ncc2N(C)C1=O [Compound 196, (S)-4-(7-allyl-9-cyclopentyl-5-methyl-6-oxo-6,7,8,9-tetrahydro-5H-pyrimido[4,5-b][1,4]diazepin-2-ylamino)-3-methoxy-N-(1-methylazetidin-3-yl)benzamide]	< 1
C=CC[C@H]1CN(C2CCCC2)c2nc(Nc3ccc(C(=O)N[C@H]4CC[C@H](O)CC4)cc3OC)ncc2N(C)C1=O [Compound 197, 4-((S)-7-allyl-9-cyclopentyl-5-methyl-6-oxo-6,7,8,9-tetrahydro-5H-pyrimido[4,5-b][1,4]diazepin-2-ylamino)-N-((1R,4R)-4-hydroxycyclohexyl)-3-methoxybenzamide]	< 1
C=CC[C@H]1CN(C2CCCC2)c2nc(Nc3ccc(C(=O)N[C@H]4CCCN(C)C4)cc3OC)ncc2N(C)C1=O [Compound 198, 4-((S)-7-allyl-9-cyclopentyl-5-methyl-6-oxo-6,7,8,9-tetrahydro-5H-pyrimido[4,5-b][1,4]diazepin-2-ylamino)-3-methoxy-N-((S)-1-methylpiperidin-3-yl)benzamide]	< 1
C=CC[C@H]1CN(C2CCCC2)c2nc(Nc3ccc(C(=O)N[C@@H]4CCCNC4)cc3OC)ncc2N(C)C1=O [Compound 200, 4-((S)-7-allyl-9-cyclopentyl-5-methyl-6-oxo-6,7,8,9-tetrahydro-5H-pyrimido[4,5-b][1,4]diazepin-2-ylamino)-3-methoxy-N-((R)-piperidin-3-yl)benzamide]	1 to 2.51
C=CC[C@H]1CN(C2CCCC2)c2nc(Nc3ccc(C(=O)N[C@H]4CCCNC4)cc3OC)ncc2N(C)C1=O [Compound 201, 4-((S)-7-allyl-9-cyclopentyl-5-methyl-6-oxo-6,7,8,9-tetrahydro-5H-pyrimido[4,5-b][1,4]diazepin-2-ylamino)-3-methoxy-N-((S)-piperidin-3-yl)benzamide]	1 to 2.51
C=CC[C@H]1CN(C2CCCC2)c2nc(Nc3ccc(C(=O)N[C@@H]4CCNC4)cc3OC)ncc2N(C)C1=O [Compound 202, 4-((S)-7-allyl-9-cyclopentyl-5-methyl-6-oxo-6,7,8,9-tetrahydro-5H-pyrimido[4,5-b][1,4]diazepin-2-ylamino)-3-methoxy-N-((R)-pyrrolidin-3-yl)benzamide]	1 to 2.51
C=CC[C@H]1CN(C2CCCC2)c2nc(Nc3ccc(C(=O)N[C@H]4CCNC4)cc3OC)ncc2N(C)C1=O [Compound 203, 4-((S)-7-allyl-9-cyclopentyl-5-methyl-6-oxo-6,7,8,9-tetrahydro-5H-pyrimido[4,5-b][1,4]diazepin-2-ylamino)-3-methoxy-N-((S)-pyrrolidin-3-yl)benzamide]	1 to 2.51
C=CC[C@H]1CN(C2CCCC2)c2nc(Nc3ccc(C(=O)N[C@@H]4CCN(C)C4)cc3OC)ncc2N(C)C1=O [Compound 204, 4-((S)-7-allyl-9-cyclopentyl-5-methyl-6-oxo-6,7,8,9-tetrahydro-5H-pyrimido[4,5-b][1,4]diazepin-2-ylamino)-3-methoxy-N-((R)-1-methylpyrrolidin-3-yl)benzamide]	1 to 2.51
C=CC[C@H]1CN(C2CCCC2)c2nc(Nc3ccc(C(=O)N[C@H]4CCN(C)C4)cc3OC)ncc2N(C)C1=O [Compound 205, 4-((S)-7-allyl-9-cyclopentyl-5-methyl-6-oxo-6,7,8,9-tetrahydro-5H-pyrimido[4,5-b][1,4]diazepin-2-ylamino)-3-methoxy-N-((S)-1-methylpyrrolidin-3-yl)benzamide]	< 1
C=CC[C@H]1CN(C2CCCC2)c2nc(Nc3ccc(C(=O)NN4CCN(C)CC4)cc3OC)ncc2N(C)C1=O [Compound 206, (S)-4-(7-allyl-9-cyclopentyl-5-methyl-6-oxo-6,7,8,9-tetrahydro-5H-pyrimido[4,5-b][1,4]diazepin-2-ylamino)-3-methoxy-N-(4-methylpiperazin-1-yl)benzamide]	< 1
C=CC[C@H]1CN(C2CCCC2)c2nc(Nc3ccc(C(=O)NC4CCNCC4)cc3OC)ncc2N(C)C1=O [Compound 207, (S)-4-(7-allyl-9-cyclopentyl-5-methyl-6-oxo-6,7,8,9-tetrahydro-5H-pyrimido[4,5-b][1,4]diazepin-2-ylamino)-3-methoxy-N-(piperidin-4-yl)benzamide]	3.16 to 10
C#CCC1CN(C2CCCC2)c2nc(Nc3ccc(C(=O)NC4CCN(C)CC4)cc3OC)ncc2N(C)C1=O (stereo not drawn) [Compound 209]	1 to 2.51
C#CCC1CN(C2CCCC2)c2nc(Nc3ccc(C(=O)NC4CCNCC4)cc3OC)ncc2N(C)C1=O (stereo not drawn) [Compound 211, 4-(9-cyclopentyl-5-methyl-6-oxo-7-(prop-2-ynyl)-6,7,8,9-tetrahydro-5H-pyrimido[4,5-b][1,4]diazepin-2-ylamino)-3-methoxy-N-(piperidin-4-yl)benzamide]	1 to 2.51
CC#CC[C@@H]1CN(C2CCCC2)c2nc(Nc3ccc(C(=O)NC4CCN(C)CC4)cc3OC)ncc2N(C)C1=O [Compound 216, (R)-4-(7-(but-2-ynyl)-9-cyclopentyl-5-methyl-6-oxo-6,7,8,9-tetrahydro-5H-pyrimido[4,5-b][1,4]diazepin-2-ylamino)-3-methoxy-N-(1-methylpiperidin-4-yl)benzamide]	1 to 2.51
C/C=C\CC1CN(C2CCCC2)c2nc(Nc3ccc(C(=O)NC4CCN(C)CC4)cc3OC)ncc2N(C)C1=O (stereo not drawn) [Compound 218, (Z)-4-(7-(but-2-enyl)-9-cyclopentyl-5-methyl-6-oxo-6,7,8,9-tetrahydro-5H-pyrimido[4,5-b][1,4]diazepin-2-ylamino)-3-methoxy-N-(1-methylpiperidin-4-yl)benzamide]	< 1
CCC#CCC1CN(C2CCCC2)c2nc(Nc3ccc(C(=O)NC4CCN(C)CC4)cc3OC)ncc2N(C)C1=O (stereo not drawn) [Compound 219, 4-(9-cyclopentyl-5-methyl-6-oxo-7-(pent-2-ynyl)-6,7,8,9-tetrahydro-5H-pyrimido[4,5-b][1,4]diazepin-2-ylamino)-3-methoxy-N-(1-methylpiperidin-4-yl)benzamide]	3.16 to 10
C/C=C/CC1CN(C2CCCC2)c2nc(Nc3ccc(C(=O)NC4CCN(C)CC4)cc3OC)ncc2N(C)C1=O (stereo not drawn) [Compound 220, (E)-4-(7-(but-2-enyl)-9-cyclopentyl-5-methyl-6-oxo-6,7,8,9-tetrahydro-5H-pyrimido[4,5-b][1,4]diazepin-2-ylamino)-3-methoxy-N-(1-methylpiperidin-4-yl)benzamide]	3.16 to 10
C=CCC1(C)CN(C2CCCC2)c2nc(Nc3ccc(C(=O)NC4CCN(C)CC4)cc3OC)ncc2N(C)C1=O (stereo not drawn) [Compound 221, 4-(7-allyl-9-cyclopentyl-5,7-dimethyl-6-oxo-6,7,8,9-tetrahydro-5H-pyrimido[4,5-b][1,4]diazepin-2-ylamino)-3-methoxy-N-(1-methylpiperidin-4-yl)benzamide]	1 to 2.51
C=CCC1CN(C2CCCCC2)c2nc(Nc3ccc(C(=O)NC4CN(C)C4)cc3OC)ncc2N(C)C1=O (stereo not drawn) [Compound 225, 4-(7-allyl-9-cyclohexyl-5-methyl-6-oxo-6,7,8,9-tetrahydro-5H-pyrimido[4,5-b][1,4]diazepin-2-ylamino)-3-methoxy-N-(1-methylazetidin-3-yl)benzamide]	3.16 to 10
C=CCC1CN(C2CCCCC2)c2nc(Nc3ccc(C(=O)NN4CCN(C)CC4)cc3OC)ncc2N(C)C1=O (stereo not drawn) [Compound 226, 4-(7-allyl-9-cyclohexyl-5-methyl-6-oxo-6,7,8,9-tetrahydro-5H-pyrimido[4,5-b][1,4]diazepin-2-ylamino)-3-methoxy-N-(4-methylpiperazin-1-yl)benzamide]	1 to 2.51
C=CCC1CN(C2CCCCC2)c2nc(Nc3ccc(C(=O)N[C@H]4CCCN(C)C4)cc3OC)ncc2N(C)C1=O (stereo partly drawn) [Compound 227, 4-(7-allyl-9-cyclohexyl-5-methyl-6-oxo-6,7,8,9-tetrahydro-5H-pyrimido[4,5-b][1,4]diazepin-2-ylamino)-3-methoxy-N-((S)-1-methylpiperidin-3-yl)benzamide]	> 10
